Source: patent publication US20240293466A1, “DIFFERENTIAL CXCR4 […] HEMATOPOIETIC PROGENITOR CELLS VERSUS STEM CELLS DIRECTS HOMING AND LONG-TERM ENGRAFTMENT” (priority 2021, published 2024)

Legend:
CXCR4 = CXCR4 (Homo sapiens, UniProt P61073)
Description: 6- to 14-week-old NOD.Cg-Prkdc^scid Il2rg^tm1Wjl/SzJ (NSG) mice were used in UCB- and MPB-derived HSPC transplant experiments. Mice were irradiated with 280 cGy prior to transplant. For homing experiments, each mouse received 3×10^6 CD34+cells and 16-22 hours post-injection, the mice were sacrificed and bone marrow from the femurs was analyzed for human cell content. For long-term engraftment experiments, mice received limiting dilution CD34+or CD34+CD38−HSPC doses. IV injections were done by injecting HSPC in 200-250 μL via tail vein and IBM injections were done by injecting HSPC in 10 μL into the femur.
The cells were washed with PBS and transplanted into NSG mice for homing experiments.
CD34+cells were transduced with a blue fluorescent protein (BFP) encoding LV vector and the CD34+CD38+BFP+HPC were sorted by flow cytometry.

VLA-4 = biological target: T1, VLA-4 (Homo sapiens, UniProt P05556+P13612); assay: Homing of CD34+CD38+ HPC into bone marrow of NSG mice after VLA-4 blockade; format: in vivo; details: IV or IBM delivery; HPC pre-treated with 1 μM BIO5192
T1 construct: endogenous in cells; host or cells: human G-CSF mobilized peripheral blood CD34+CD38+BFP+ HPC, sorted after transduction with a BFP-only LV vector
Description: (§1) Mice were irradiated with 280 cGy prior to transplant.
CD34+HSPC were resuspended in PBS containing 1 μM BIO5192 (Tocris, 5051) and incubated on ice for 20 minutes.

[1] = test system: CD34+CD38- HSC-enriched cells; assay: Long-term (24 week) engraftment of transduced CD34+CD38- cells in NSG mice; format: in vivo, human; details: 24 weeks
Excerpt: as §1
At 12 weeks following transplant, bone marrow was harvested via aspirate of the femur for in vivo engraftment analysis. For animals that received IBM injections into one femur, the non-injected alternate femur was aspirated. For 24 week and homing analysis, mice were sacrificed, and bone marrow was harvested from both the rear and forelimbs. Cells were stained fresh with the following antibodies: PerCP anti-human CD45 (BioLegend 304026), Anti-human CD33 PE-Cy7 (eBioscience 25-0338-42), APC-Cy7 Mouse Anti-Human CD19 (BD 557791), Anti-Human CD3 PE (BD BioSciences 555340), and APC Mouse Anti-Human CD34 (BD BioScience 555824). Red bloods cells were lysed after staining using red blood cell lysis buffer.
Next, CD34+CD38−HSC-enriched cells were sorted, transduced with GFP LV^CXCR4 vector or GFP LV control vector, and transplanted them IV or IBM in two limiting dilutions to irradiated NSG mice to assess engraftment of the long-term repopulating HSC at 6 months post-transplant (FIG. 5F-5G). […] The slightly higher engraftment of untransduced IV transplanted cells (FIGS. 5F and 10C) was likely because LV preparations often contain some defective viral particles, which, like VLP, would deliver CXCR4 protein but not result in an effective transduction (transgene transfer or GFP+cells). […]

[2] = test system: MPB CD34+ HSPC / CD34+CD38- cells; assay: Gene transfer efficiency of LV vectors in HSPC; format: cell-based, human
Description: UCB and G-CSF MPB were obtained and CD34+HSPC were isolated by magnetic selection with Indirect CD34 Microbead kit, human (Miltenyi, 130-046-701). CD34+purity was >95% as confirmed by flow cytometry. CD34+CD38−cells were isolated from G-CSF MPB by magnetic selection with CD34+CD38−Isolation Kit, human (Miltenyi, 130-114-822) and cryopreserved. Thawed CD34+ or CD34+CD38−cells were cultured in X-VIVO 10 (Lonza BE02-055Q) or SCGM (CellGenix 20806-0500) supplemented with 2% human serum albumin, 100 ng/mL TPO, 300 ng/mL SCF, and 300 ng/mL FLT3-L (all cytokines purchased from Peprotech) at a cell density of 2-5×10^6 CD34+cells/mL. Media was supplemented with Birb 796 (600 nM) (Selleckchem) throughout culture and Prostaglandin E2 (10 μM) (Cayman) at plating, transduction, and 1 hour before harvest. Cells were transduced with a lentiviral vector in culture for 36-42 hours where indicated. CD34+HSPC were transduced at a final concentration of 5×10^7-1×10^8 IU/mL. Following culture, CD34+HSPC were harvested and washed with PBS, resuspended in PBS, and used in in vivo or in vitro experiments, as described below.

[3] = test system: CD34+CD38- HSC-enriched cells; assay: CXCR4 expression (flow cytometry MFI) on sorted transduced cells at time of transplant; format: cell-based, human; details: CD34+CD38-BFP+ cells, 72 hours after gene transfer
Excerpt: All LV vectors were packaged using the Gag-Pol, Rev and VSV-G envelope plasmids. All vectors were under the control of the MNDU3 promoter. The GFP LV construct was pRRL.SIN.cPPT.MNDU3.eGFP.WPRE. The BFP LV construct was designed by replacing the GFP cDNA in pRRL.SIN.cPPT.MNDU3.eGFP.WPRE.with mTag2BFP. The BFP-CXCR4 LV was pRRL.SIN.cPPT.MNDU3.mTag2BFP-CXCR4.WPRE. All lentiviral vectors were packaged in HEK 293T (ATCC) cells and vector titers determined in the murine erythroleukemia (MEL) (ATCC) cells as previously described (Perumbeti et al., Blood, 2009; Urbinati et al., Mol Ther, 2009; Arumugam et al., Mol Ther, 2009). […]
An alternative explanation for the competitive homing and engraftment advantage of HPC could be that they comprise the vast majority of CD34+HSPC (98-99%), while HSC are a small minority. It was experimentally conferred the HSC-enriched CD34+CD38− population with slightly higher CXCR4 expression than the CD34+CD38+HPC and assessed homing (FIG. 3D). […] CXCR4 expression on these populations was assessed before transplant. […] The sorted BFP-HPC population was then mixed with the BFP+CD34+CD38−CXCR4^high HSC-enriched cell population in ratios seen in CD34+HSPC prior to sorting, and transplanted them either IV or IBM, and homing of the CD34+CD38−BFP+CXCR4^high HSC-enriched cells was assessed. […]

[4] = test system: CD34+CD38- HSC-enriched cells; assay: Homing of CD34+CD38-BFP+ cells mixed with CD34+CD38+ HPC in NSG mice; format: in vivo, human; details: 20-22 hours
Excerpt: as §1
An alternative explanation for the competitive homing and engraftment advantage of HPC could be that they comprise the vast majority of CD34+HSPC (98-99%), while HSC are a small minority. It was experimentally conferred the HSC-enriched CD34+CD38− population with slightly higher CXCR4 expression than the CD34+CD38+HPC and assessed homing (FIG. 3D). The CD34+HSPC were transduced with a BFP-CXCR4-encoding LV vector or a BFP-encoding LV control vector and CD34+CD38−BFP+HSC-enriched cells were sorted along with untransduced CD34+CD38+BFP−HPC. CXCR4 expression on these populations was assessed before transplant. In control cells, CXCR4 expression on the more primitive CD34+CD38−cells was much lower (MFI 16,930) than on CD34+CD38+HPC (MFI 35,098) (FIG. 3E), consistent with prior data (see, e.g., FIG. 2D). […] The sorted BFP-HPC population was then mixed with the BFP+CD34+CD38−CXCR4^high HSC-enriched cell population in ratios seen in CD34+HSPC prior to sorting, and transplanted them either IV or IBM, and homing of the CD34+CD38−BFP+CXCR4^high HSC-enriched cells was assessed. Control CD34+CD38−BFP+cells were also mixed with CD34+CD38+BFP−HPC and transplanted IV or IBM (FIG. 3D) and their homing into bone marrow was assessed. […]

Sequence of CXCR4 (P61073 whole entry): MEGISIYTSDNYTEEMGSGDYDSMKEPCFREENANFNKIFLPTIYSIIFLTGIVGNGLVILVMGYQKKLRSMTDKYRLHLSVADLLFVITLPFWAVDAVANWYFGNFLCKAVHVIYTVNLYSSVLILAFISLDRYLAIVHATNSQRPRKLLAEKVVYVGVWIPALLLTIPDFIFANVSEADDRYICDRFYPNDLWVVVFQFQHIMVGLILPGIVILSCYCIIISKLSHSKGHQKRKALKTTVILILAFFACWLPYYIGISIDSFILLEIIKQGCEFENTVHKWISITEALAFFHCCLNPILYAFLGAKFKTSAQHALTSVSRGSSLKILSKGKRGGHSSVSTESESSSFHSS
T1 sequence (P13612 34-1032): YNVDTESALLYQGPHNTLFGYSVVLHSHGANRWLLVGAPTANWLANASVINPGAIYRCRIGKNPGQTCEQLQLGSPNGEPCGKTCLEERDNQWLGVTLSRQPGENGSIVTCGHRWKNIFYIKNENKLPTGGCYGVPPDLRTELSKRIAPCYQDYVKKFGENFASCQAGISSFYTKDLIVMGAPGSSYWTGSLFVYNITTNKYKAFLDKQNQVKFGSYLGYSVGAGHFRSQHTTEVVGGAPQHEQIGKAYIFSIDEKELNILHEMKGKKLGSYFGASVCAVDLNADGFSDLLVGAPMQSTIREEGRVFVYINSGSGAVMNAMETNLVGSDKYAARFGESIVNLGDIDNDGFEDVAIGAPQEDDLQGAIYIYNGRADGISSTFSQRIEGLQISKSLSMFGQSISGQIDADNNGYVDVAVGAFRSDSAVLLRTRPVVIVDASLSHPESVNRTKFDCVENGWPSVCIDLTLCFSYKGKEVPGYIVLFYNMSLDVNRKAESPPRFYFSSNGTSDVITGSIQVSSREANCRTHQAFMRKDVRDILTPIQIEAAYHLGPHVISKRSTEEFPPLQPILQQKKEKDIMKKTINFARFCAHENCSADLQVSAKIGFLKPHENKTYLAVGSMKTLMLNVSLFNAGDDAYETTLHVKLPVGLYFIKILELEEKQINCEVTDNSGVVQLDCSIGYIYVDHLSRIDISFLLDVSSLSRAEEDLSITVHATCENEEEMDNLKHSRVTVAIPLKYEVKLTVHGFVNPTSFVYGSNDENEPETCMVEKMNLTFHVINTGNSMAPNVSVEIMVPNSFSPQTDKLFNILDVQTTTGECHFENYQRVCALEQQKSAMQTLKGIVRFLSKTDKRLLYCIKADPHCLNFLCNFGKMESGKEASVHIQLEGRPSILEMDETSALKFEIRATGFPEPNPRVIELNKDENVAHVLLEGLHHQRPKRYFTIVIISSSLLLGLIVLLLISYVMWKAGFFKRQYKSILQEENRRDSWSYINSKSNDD
T1 sequence (P05556 21-798): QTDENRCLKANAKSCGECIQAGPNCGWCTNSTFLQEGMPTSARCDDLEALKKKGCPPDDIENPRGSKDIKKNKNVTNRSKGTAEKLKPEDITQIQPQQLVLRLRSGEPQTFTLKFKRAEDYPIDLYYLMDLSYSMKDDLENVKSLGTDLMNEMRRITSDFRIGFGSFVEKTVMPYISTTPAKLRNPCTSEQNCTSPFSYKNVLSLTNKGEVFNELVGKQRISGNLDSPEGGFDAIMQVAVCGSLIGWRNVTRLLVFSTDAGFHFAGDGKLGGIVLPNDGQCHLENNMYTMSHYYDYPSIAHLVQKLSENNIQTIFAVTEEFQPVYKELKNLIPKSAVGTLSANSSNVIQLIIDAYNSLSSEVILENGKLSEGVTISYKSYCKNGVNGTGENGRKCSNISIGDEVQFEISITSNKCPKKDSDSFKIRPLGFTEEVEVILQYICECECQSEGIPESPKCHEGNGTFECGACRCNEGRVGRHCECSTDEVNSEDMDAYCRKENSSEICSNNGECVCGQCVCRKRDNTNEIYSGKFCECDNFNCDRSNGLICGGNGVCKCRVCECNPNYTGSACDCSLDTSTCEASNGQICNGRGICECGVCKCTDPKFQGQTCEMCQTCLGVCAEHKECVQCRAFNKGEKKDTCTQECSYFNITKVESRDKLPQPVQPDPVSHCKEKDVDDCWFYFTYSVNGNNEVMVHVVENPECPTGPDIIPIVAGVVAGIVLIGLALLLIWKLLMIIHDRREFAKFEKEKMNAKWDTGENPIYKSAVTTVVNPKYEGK

Compound: c1cc(CN2CCCNCCNCCCNCC2)ccc1CN1CCCNCCNCCCNCC1 [AMD3100]
- human HPC content in the injected femur (IF) (CXCR4; IBM delivery, CD34+CD38+BFP+ HPC pre-treated with 100 ug/mL AMD3100, reduced to homing levels of IV delivery or nonIF): significantly reduced
- homing of IV injected cells (CXCR4; IV delivery, HPC pre-treated with AMD3100): note blocked

Compound: Cc1ccccc1NC(=O)Nc1ccc(CC(=O)N(C)[C@@H](CC(C)C)C(=O)NCC[C@H](NC(=O)[C@@H]2CCCN2S(=O)(=O)c2cc(Cl)cc(Cl)c2)C(=O)O)cc1 [BIO5192]
- CD34+38+ HPC homing pattern vs corresponding controls (VLA-4): did not alter

Compound: pRRL.SIN.cPPT.MNDU3.eGFP.WPRE [GFP LV]
- lineage repopulation [1]: full multilineage repopulation
- gene transfer efficiency ([2]; CD34+CD38- HSC-enriched cells, experiment of FIG. 4): 69%
- gene transfer ([2]; CD34+CD38- cells, homing/engraftment experiment of FIGS. 5 and 10): 60%
- gene transfer ([2]; MPB CD34+HSPC, experiment of FIG. 1): 63-66%

Compound: pRRL.SIN.cPPT.MNDU3.mTag2BFP-CXCR4.WPRE [BFP-CXCR4 LV vector]
- CXCR4 expression MFI [3]: 37,453
- homing of CD34+CD38- cells to bone marrow ([4]; IV administration, mixed with majority of CD34+38+ HPC): higher homing levels
- homing of CD34+CD38- cells to bone marrow ([4]; direct IBM transplantation, mixed with majority of HPC): remarkably improved homing advantage
